The test system of data set [1] is liver. The note with it: in vivo; cited from earlier work.
The subject of data set [2] is human proximal tubular cells (PTCs). The note with it: cited from earlier work.
Data set [3] has as its system human kidney. The note with it: cited from earlier work.
The test system of data set [4] is HK-2 cells. As to conditions: previously observed (Wu et al.); cited from earlier work.
For data set [5], the system named is lung. The note with it: cited from earlier work.
The test system of data set [6] is histone H2AX phosphorylated on serine 139 (γH2AX). It is filed as cell-based, human.
Data set [7] deals with primary PTCs. As to conditions: 1000 μg/mL.
Where [8] appears, read: known in vivo group, Toxic / Non-toxic.
The mark [9] stands for this setting: known human kidney toxicity flag 1/0.

Entries after “also recorded” stand apart in the source; their conditions may differ. Counter-ions that a name gives are not always drawn. Like-named read-outs stand apart in the source and are kept apart here.

Turning to `O=c1[nH]cc(F)c(=O)[nH]1` [5-Fluorouracil], the Hepatotoxic in data set [1] is on record as 1. In data set [2] (human, in vivo), the “PTC Toxicity” value was “Toxic” and the PTC-toxic is 1. The Nephrotoxic in data set [3] (in vivo) is on record as 1. The apoptotic responses result in data set [4] is recorded as “lack of apoptotic responses”.
Regarding `[Cd+2].[Cl-].[Cl-]` [Cadmium(II) chloride], the Pulmonotoxic in data set [5] (known toxicity flag 1/0) is on record as 1. Besides, the Hepatotoxic in data set [1] is listed as 1. In addition, the “PTC Toxicity” value in data set [2] (setting [8]) is on record as “Toxic”. Further, the PTC-toxic in data set [2] (known toxicity flag 1/0) is 1. In data set [3] (setting [9]), the Nephrotoxic is 1.
Turning to `N.N.[Cl][Pt][Cl]` [Cisplatin], the “change in γH2AX levels” value in data set [6] is given as “increasing levels”.
Consider `OCCO` [Ethylene glycol], for which the Pulmonotoxic in data set [5] (human, in vivo) is 0. For the same compound, in data set [1], the Hepatotoxic was 0. For the same compound, in data set [2] (human, in vivo), the “PTC Toxicity” value is “Non-toxic” and the PTC-toxic was 0. In addition, the Nephrotoxic in data set [3] (in vivo) was 1.
`CCC[C@@H]1C[C@@H](C(=O)N[C@@H]([C@H]2O[C@H](SC)[C@H](O)[C@@H](O)[C@H]2O)[C@@H](C)O)N(C)C1` [Lincomycin]: the “change in γH2AX levels” value in data set [6] is “small or no change”. Further, in data set [1], the Hepatotoxic was 0. In data set [2] (human, in vivo), the “PTC Toxicity” value is listed as “Non-toxic” and the PTC-toxic is recorded as 0. In data set [3] (in vivo), the Nephrotoxic is on record as 1.
For the compound `[Cl-].[Li+]` [Lithium chloride], the “change in γH2AX levels” value in data set [6] is given as “small or no change”. Besides, the Pulmonotoxic in data set [5] (human, in vivo) is recorded as 0. For the same compound, the Hepatotoxic in data set [1] is reported as 0. Further, in data set [2] (human, in vivo), the “PTC Toxicity” value is reported as “Non-toxic” and the PTC-toxic is listed as 0. For the same compound, the Nephrotoxic in data set [3] (in vivo) is 1.
Regarding `C[C@@H]1[C@H](O)[C@@H](C)/C=C/C=C/CC/C=C/C=C/C=C/C=C/C(O[C@H]2O[C@H](C)[C@@H](O)[C@H](N)[C@@H]2O)CC2O[C@](O)(CC(O)C(O)CCC(O)CC(O)CC(O)CC(=O)O[C@H]1C)CC(O)C2C(=O)O` (stereo partly shown) [Nystatin], in data set [5] (human, in vivo), the Pulmonotoxic is 0.
As to `C[C@@H]1Cc2c(Cl)cc(C(=O)N[C@@H](Cc3ccccc3)C(=O)O)c(O)c2C(=O)O1` [Ochratoxin A], the “change in γH2AX levels” value in data set [6] (HPTC-B results) is on record as “increasing levels; also recorded: large increase”. For the same compound, the Hepatotoxic in data set [1] is 0. In data set [2] (setting [8]), the “PTC Toxicity” value is reported as “Toxic”. The PTC-toxic in data set [2] (known toxicity flag 1/0) is reported as 1. In addition, the Nephrotoxic in data set [3] (setting [9]) is 1. For the same compound, in data set [7] (16 hours), the “cells with increased annexin-V levels” value is around 25%. The “increase in cell death rates” value in data set [7] (within the measured period (16 hours)) is on record as “very small or no increase”.
Regarding `C[n+]1ccc(-c2cc[n+](C)cc2)cc1` [Paraquat], the Pulmonotoxic in data set [5] (human, in vivo) is reported as 1. Further, the Hepatotoxic in data set [1] is 1. In addition, in data set [2] (human, in vivo), the “PTC Toxicity” value is listed as “Toxic” and the PTC-toxic was 1. Moreover, the Nephrotoxic in data set [3] (in vivo) is on record as 1.
Consider `NC(=O)c1ncn([C@@H]2O[C@H](CO)[C@@H](O)[C@H]2O)n1` [Ribavirin], for which the “change in γH2AX levels” value in data set [6] is recorded as “small or no change”. Also, the Hepatotoxic in data set [1] is 0. Further, in data set [2] (human, in vivo), the “PTC Toxicity” value is listed as “Non-toxic” and the PTC-toxic was 0. Further, the Nephrotoxic in data set [3] (in vivo) was 0.
With `[Cl-].[Na+]` [Sodium chloride], the Pulmonotoxic in data set [5] (human, in vivo) is 0.
Take `C[C@H](Cn1cnc2c(N)ncnc21)OCP(=O)(O)O` [Tenofovir]: the Pulmonotoxic in data set [5] (human, in vivo) was 0. Further, in data set [1], the Hepatotoxic is reported as 0. Also, in data set [2] (human, in vivo), the “PTC Toxicity” value is given as “Toxic” and the PTC-toxic is given as 1. Further, in data set [3] (in vivo), the Nephrotoxic is 1.
Take `CN1COCN(Cc2cnc(Cl)s2)/C1=N\[N+](=O)[O-]` [Thiamethoxam]: the Pulmonotoxic in data set [5] (human, in vivo) was 0.
`OCCOCCOCCO` [Triethylene glycol]: the Pulmonotoxic in data set [5] (human, in vivo) is 0.
As for `CN[C@H](CC(C)C)C(=O)N[C@H]1C(=O)N[C@@H](CC(N)=O)C(=O)N[C@H]2C(=O)N[C@H]3C(=O)N[C@H](C(=O)N[C@H](C(=O)O)c4cc(O)cc(O)c4-c4cc3ccc4O)[C@H](O)c3ccc(c(Cl)c3)Oc3cc2cc(c3O[C@@H]2O[C@H](CO)[C@@H](O)[C@H](O)[C@H]2O[C@H]2C[C@](C)(N)[C@H](O)[C@H](C)O2)Oc2ccc(cc2Cl)[C@H]1O` [Vancomycin hydrochloride], the Pulmonotoxic in data set [5] (human, in vivo) is 0.
For the compound `C=C(Cl)Cl` [Vinylidene chloride], the Pulmonotoxic in data set [5] (human, in vivo) is reported as 0.
Regarding `Nc1ccc(N)cc1` [p-Phenylenediamine], the Pulmonotoxic in data set [5] (human, in vivo) is 1.
In the case of `C=CC(=C)CCC=C(C)C` [β-Myrcene], the Pulmonotoxic in data set [5] (human, in vivo) is given as 0.
On to Bleomycin sulfate, for which, in data set [5] (human, in vivo), the Pulmonotoxic is 1.
Turning to Gentamicin, in data set [1], the Hepatotoxic is 0. Also, in data set [2] (human, in vivo), the “PTC Toxicity” value is reported as “Toxic” and the PTC-toxic was 1. Further, the Nephrotoxic in data set [3] (in vivo) is given as 1. Besides, in data set [4], the apoptotic responses entry is reported as “lack of apoptotic responses”.
Take Hydroxypropyl-β-cyclodextrin: the Pulmonotoxic in data set [5] (human, in vivo) is reported as 0.
